Measurements published in patent US5686449A, “1,5-benzodiazepines useful as gastrinor CCK-antagonists” (priority 1994, dated 1997).
Like-named read-outs stand apart in the source and are kept apart here.

Key:
CCK-A receptor = experiment: CCK receptor binding, CCK-A (Pancreas Assay)
Protocol: (§1) Exp & Ther. 261, 1056-1063, 1992.
(§2) The binding affinity of the compounds of the invention for the CCK-A receptor (Pancreas Assay) and CCK-B receptor (guinea pig cortex assay) was determined using the procedure of G Dal Forno et al J. Pharmacol. Exp & Ther. 261-1056-1063.

CCK-B receptor = biological target: T1, CCK-B receptor (Cavia porcellus, UniProt H0VZC5); experiment: CCK receptor binding, CCK-B (guinea pig cortex assay)
T1 construct: CCK-B receptor (guinea pig cortex assay); from tissue; host or cells: guinea pig cortex
T1 sequence (H0VZC5 1-426): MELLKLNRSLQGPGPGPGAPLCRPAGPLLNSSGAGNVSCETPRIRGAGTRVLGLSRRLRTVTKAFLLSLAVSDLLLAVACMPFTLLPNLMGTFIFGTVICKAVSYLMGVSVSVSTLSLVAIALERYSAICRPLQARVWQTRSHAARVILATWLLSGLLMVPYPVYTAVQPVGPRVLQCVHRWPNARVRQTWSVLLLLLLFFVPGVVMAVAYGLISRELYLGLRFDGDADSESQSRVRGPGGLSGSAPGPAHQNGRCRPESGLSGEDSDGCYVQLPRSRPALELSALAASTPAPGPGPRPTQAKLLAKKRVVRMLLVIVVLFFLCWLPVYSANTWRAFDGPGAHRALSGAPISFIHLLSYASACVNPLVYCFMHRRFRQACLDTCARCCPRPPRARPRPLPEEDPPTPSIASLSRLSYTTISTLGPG
Protocol: as §1, §2

[1] = CCK-B receptor, guinea pig cortex assay, read-out: pKi CCK-B (converted)

For CC(C)CCN1C(=O)C(NC(=O)Nc2cccc(N(C)C)c2)C(=O)N(CC23CC4CC(CC(C4)C2)C3)c2ccccc21 (centres unmarked) [Example 2, N-[1-(1-Adamantylmethyl)-2,4-dioxo-5-(3-methylbut-1-yl)-2,3,4,5-tetrahydro-1H-1,5-benzodiazepin-3-yl]-N'-[3-(N,N-dimethylamino)phenyl]urea], the “pKi CCK-A” value (CCK-A receptor) was 6.02 and the Ki (CCK-B receptor) was 5.62 nM.

In the case of CCCCN1C(=O)C(NC(=O)Nc2ccc(OC)cc2)C(=O)N(CCC(C)C)c2ccccc21 (centres unmarked) [Example 12], the “pKi CCK-A” value (CCK-A receptor) is reported as 6.16 and the Ki (CCK-B receptor; [1]) is reported as 2.04 nM.

O=C(Nc1ccccc1)NC1C(=O)N(CCCO)c2ccccc2N(CC23CC4CC(CC(C4)C2)C3)C1=O (centres unmarked) [Example 14, N-[1-(Adamantane-1-methyl)-2,4-dioxo-5-(3-hydroxypropyl)-2,3,4,5-tetrahydro-1H-1,5-benzodiazepin-3-yl]-N'-phenylurea] was tested, and the “pKi CCK-A” value (CCK-A receptor) was 6.09 and the Ki (CCK-B receptor; [1]) was 0.389 nM.

O=C(Nc1ccccc1)NC1C(=O)N(CCO)c2ccccc2N(CC23CC4CC(CC(C4)C2)C3)C1=O (centres unmarked) [Example 9, N-[1-(Adamantylmethyl)-2,4-dioxo-5-(2-hydroxyethyl)-2,3,4,5-tetrahydro-1H-1,5-benzodiazepin-3-yl]-N'-phenylurea] was tested, and the Ki (CCK-B receptor; [1]) was 1.41 nM.

With O=C(Nc1ccccc1)NC1C(=O)N(CC23CC4CC(CC(C4)C2)C3)c2ccccc2N(C2CCCCC2)C1=O (centres unmarked) [Example 3] the “pKi CCK-A” value (CCK-A receptor) was 6.25 and the Ki (CCK-B receptor) was 2.4 nM.

With Cc1cccc(NC(=O)NC2C(=O)N(CCO)c3ccccc3N(CC34CC5CC(CC(C5)C3)C4)C2=O)c1 (centres unmarked) [Example 10] the “pKi CCK-A” value (CCK-A receptor) was 6.8 and the Ki (CCK-B receptor; [1]) was 0.398 nM.

Work on CN1C(=O)C(NC(=O)Nc2ccccc2)C(=O)N(CC23CC4CC(CC(C4)C2)C3)c2ccccc21 (single isomer, unassigned; (-)) [Example 8, (-)-N-[1-(Adamantylmethyl)-2,4-dioxo-5-methyl-2,3,4,5-tetrahydro-1H-1,5-benzodiazepin-3-yl]-N'-phenylurea] yielded a Ki (CCK-B receptor; [1]) of 1 nM.

Molecule O=C(Nc1ccccc1)NC1C(=O)N(CCO)c2ccccc2N(CC23CC4CC(CC(C4)C2)C3)C1=O (single isomer, unassigned; (-)) [Example 11, (-)-N-[1-(Adamantylmethyl)-2,4-dioxo-5-(2-hydroxyethyl)-2,3,4,5-tetrahydro-1H-1,5-benzodiazepin-3-yl]-N'-phenylurea] has a Ki (CCK-B receptor; [1]) of 0.251 nM.

CC(C)CCN1C(=O)C(NC(=O)Oc2cccc(N(C)C)c2)C(=O)N(CC23CC4CC(CC(C4)C2)C3)c2ccccc21 (centres unmarked) [Example 4, 1-(1-Adamantylmethyl)-3-[3-(N,N-dimethylamino)phenyloxycarbonyl]amino-2,4-dioxo-5-(3-methylbut-1-yl)-2,3,4,5-tetrahydro-1H-1,5-benzodiazepine] was tested, and the “pKi CCK-A” value (CCK-A receptor) was 5.80 and the Ki (CCK-B receptor) was 7.59 nM.

For CC(C)CCN1C(=O)C(NC(=O)Nc2ccccc2)C(=O)N(CC23CC4CC(CC(C4)C2)C3)c2ccccc21 (centres unmarked) [Example 1, N-[1-(1-Adamantylmethyl)-2,4-dioxo-5-(3-methylbut-1-yl)-2,3,4,5-tetrahydro-1H-1,5-benzodiazepin-3-yl]-N'-phenylurea], the “pKi CCK-A” value (CCK-A receptor) was 6.54 and the Ki (CCK-B receptor; [1]) was 1.38 nM.
